How the values were obtained:
Plasmodium falciparum [1] = experiment: Antiparasitic activity against Plasmodium falciparum 3D7 infected in erythrocytes assessed as inhibition of parasite growth at 50 uM incubated for 48 hrs by SYBR Green I dye based fluorescence assay relative to control; type: functional; conditions: 3D7, Erythrocyte
Plasmodium falciparum [2] = experiment: Antiparasitic activity against Plasmodium falciparum 3D7 infected in erythrocytes assessed as parasite growth inhibition incubated for 48 hrs by SYBR Green I dye based fluorescence assay; type: functional, organism-based; conditions: 3D7, Erythrocyte

Row | SMILES | inhibition at 50 µM (Plasmodium falciparum [1]) [%] | IC50 (Plasmodium falciparum [2]) [µM]
1 | CCN(CC)CCCC(C)Nc1ccnc2cc(Cl)ccc12 (configuration not stated) [CHLOROQUINE] | 100 | –
2 | CO[C@@H]1C[C@H](O[C@H]2C[C@@H]3C[C@H](O)[C@@H](C)[C@](O)(C[C@@H](O)CCCC(=O)O[C@H](C[C@@H](O)[C@H](C)[C@@H](O)[C@@H](C)[C@H](CC(C)C)O[C@H]4CC[C@H](O[C@H]5C[C@@H](O)[C@H](O[C@H]6C[C@@H](O)[C@H](O)[C@@H](C)O6)[C@@H](C)O5)[C@@H](C)O4)[C@@H](C)/C=C/C=C/[C@@H](O)C2)O3)O[C@H](C)[C@H]1O | 74.8 | 32
3 | CO[C@H]1[C@H](O)C[C@H](O[C@H]2[C@H](O)C[C@H](O[C@H]3CC[C@H](O[C@@H](CC(C)C)[C@H](C)[C@H](O)[C@@H](C)[C@H](O)C[C@H]4OC(=O)CCC[C@H](O)C[C@]5(O)O[C@H](C[C@H](O[C@H]6C[C@@H](OC)[C@H](O)[C@@H](C)O6)C[C@H](O)/C=C/C=C/[C@@H]4C)C[C@H](O)[C@H]5C)O[C@@H]3C)O[C@@H]2C)O[C@@H]1C | 95.6 | 16
4 | CO[C@@H]1C[C@H](O[C@H]2C[C@@H]3C[C@H](O)[C@@H](C)[C@](O)(C[C@@H](O)CCCC(=O)O[C@H](C[C@@H](O)[C@H](C)[C@@H](O)[C@@H](C)[C@@H](O)CC(C)C)[C@@H](C)/C=C/C=C/[C@@H](O)C2)O3)O[C@H](C)[C@H]1O | 34 | > 50

From ChEMBL document CHEMBL5113554, “Dactylosporolides: Glycosylated Macrolides from Dactylosporangium fulvum” (J Nat Prod, 2022)
